Results published in patent publication EP0714604A1, “A composition having insecticidal and acaricidal properties” (MITSUI TOATSU CHEMICALS, INCORPORATED, priority 1994, dated 1996).

Tests used:
Format in all cases: in vivo
[1] = test system: second-instar larvae of the diamond-back moth; assay: Test 8: effect on the diamondback moth (residual activity on sprayed potted cabbages); details: dead larvae 2 days after feeding
Source text: Potted cabbages were sprayed with a diluted fluid of an emulsion of a compound of the general formula (1) [i.e., 10% Anniverse Emulsion (Compound No.1), 20% Trebon Emulsion (Compound No.2), an emulsion of Compound No.3, an emulsion of Compound No.4, or Shironen Emulsion (Compound No.5)], 0.6% Avermectin Emulsion or a mixture thereof to such an extent that the fluid dripped from their leaves. Subsequently, cabbage leaves were sampled at predetermined intervals and fed to second-instar larvae of the diamond-back moth. Then, the number of dead larvae was examined after 2 days from the feeding.

[2] = test system: resistant strain (selected by Compound No.1) of the Kanzawa spider mite; assay: Test 9: effect on a resistant strain (selected by Compound No.1) of the Kanzawa spider mite (LC50); details: eggs on kidney bean leaf sections sprayed, 25°C, eight days after the treatment
Protocol: (§1) About 2 cm square sections of kidney bean leaves were placed on wetted absorbent cotton. Then, 7 female adults of the Kanzawa spider mite were inoculated on each leaf section and allowed to deposit eggs. After 24 hours, the adult mites were removed, various dilutions of an emulsion of a compound of the general formula (1) [i.e., 20% Trebon Emulsion (Compound No.2), an emulsion of Compound No.3, an emulsion of Compound No.4, or Shironen Emulsion (Compound No.5)], 1% Milbenock Emulsion or a mixture thereof were sprayed by means of a tower sprayer, and the leaf sections were maintained in a thermostatic chamber kept at 25°C. Eight days after the treatment, the numbers of surviving mites, dead mites, unhatched eggs and escaping mites were examined. Thus, the survival rates at various concentrations were calculated and the LC₅₀ value (in ppm) was determined therefrom.
(§2) In order to evaluate the synergistic effect of each compound of the general formula (1) and the macrolide compound, the combined toxicity index was calculated from the LC₅₀ values of the respective compounds in the same manner as in Test 1.

[3] = test system: sensitive strain of the Kanzawa spider mite; assay: Test 1: effect on a sensitive strain of the Kanzawa spider mite (leaf section spray, LC50); details: eggs on kidney bean leaf sections sprayed, 25°C, eleven days after the treatment
Protocol: as §1, with “removed, 4 ml each of” for “removed,”, “10% Anniverse” for “an emulsion of a compound of the general formula (1) [i.e., 20% Trebon”, “No.1), 0.6% Avermectin” for “No.2), an emulsion of Compound No.3, an emulsion of Compound No.4, or Shironen Emulsion (Compound No.5)], 1% Milbenock”, “Eleven” for “Eight”
In order to evaluate the synergistic effect of the compound of the general formula (1) and the macrolide compound, the combined toxicity index was calculated from the LC₅₀ values of the respective compounds according to the equation of Y.P. Sun et al. (J. Econ. Ent., 53(5), 887, 1960).
The equation of Y.P. Sun et al. for calculating the combined toxicity index is more fully explained below. […]

[4] = test system: resistant strain of the Kanzawa spider mite; assay: Test 2: effect on a resistant strain of the Kanzawa spider mite (leaf section spray, LC50); details: eggs on kidney bean leaf sections sprayed, 25°C, eleven days after the treatment
Protocol: as §1, with “removed, 4 ml each of” for “removed,”, “10% Anniverse Emulsion (Compound No.1),” for “an emulsion of a compound of the general formula (1) [i.e.,”, “0.6% Avermectin” for “an emulsion of Compound No.3, an emulsion of Compound No.4, or Shironen Emulsion (Compound No.5)], 1% Milbenock”, “Eleven” for “Eight”
as §2

[5] = test system: resistant strain of the Kanzawa spider mite; assay: Test 3: effect on a resistant strain of the Kanzawa spider mite, Milbenock Emulsion as macrolide (LC50); details: 1% Milbenock Emulsion as macrolide, eleven days after the treatment
Protocol: A test was carried out in the same manner as in Test 1, except that, in place of 0.6% Avermectin Emulsion, 1% Milbenock Emulsion was used as the macrolide compound.

[6] = test system: resistant strain of the citrus red mite; assay: Test 4: effect on a resistant strain of the citrus red mite (leaf section spray, LC50); details: eggs on mandarin tree leaf sections sprayed, 25°C, eleven days after the treatment
Protocol: as §1, with “mandarin tree” for “kidney bean”, “citrus red” for “Kanzawa spider”, “removed, 4 ml each of” for “removed,”, “10% Anniverse” for “an emulsion of a compound of the general formula (1) [i.e., 20% Trebon”, “No.1), 0.6% Avermectin” for “No.2), an emulsion of Compound No.3, an emulsion of Compound No.4, or Shironen Emulsion (Compound No.5)], 1% Milbenock”, “Eleven” for “Eight”

Kanzawa spider mite = assay: Test 5: effect on the Kanzawa spider mite living on potted kidney bean plants (mite counts); details: Compound No.1 25 ppm, 51 before treatment
Source text: Potted kidney bean plants in the first true leaf stage were inoculated with female adults of the Kanzawa spider mite and allowed to stand in a greenhouse for about a week. After leaves infested with Kanzawa spider mites were marked, the kidney bean plants were sprayed with a diluted fluid of 10% Anniverse Emulsion (Compound No.1), a macrolide compound (i.e., 0.6% Avermectin Emulsion or 1% Milbenock Emulsion) or a mixture thereof to such an extent that the fluid dripped from their leaves. The number of Kanzawa spider mites living on the marked leaves was counted 2, 7, 12, 16 and 27 days after the treatment.

[7] = test system: resistant strain of the greenhouse whitefly; assay: Test 6: effect on a resistant strain of the greenhouse whitefly (eggs on leaf sections, LC50); details: one-day-old eggs on kidney bean leaf sections sprayed, 25°C, twelve days after the treatment
Protocol: About 2 cm square sections of kidney bean leaves on which one-day-old eggs of the greenhouse whitefly had been deposited were placed on wetted absorbent cotton, sprayed with 4 ml each of various dilutions of 10% Anniverse Emulsion (Compound No.1), 0.6% Avermectin Emulsion or a mixture thereof by means of a tower sprayer, and maintained in a thermostatic chamber kept at 25°C. Twelve days after the treatment, the numbers of surviving insects, dead insects, unhatched eggs and escaping insects were examined. Thus, the survival rates at various concentrations were calculated and the LC₅₀ value (in ppm) was determined therefrom.

green peach aphid = assay: Test 7: effect on the green peach aphid living on eggplants (population density); details: Compound No.1 25 ppm, before treatment = 100
Protocol: After leaves naturally infested with green peach aphids were marked, eggplants were sprayed with a diluted fluid of 10% Anniverse Emulsion (Compound No.1), 0.6% Avermectin Emulsion or a mixture thereof to such an extent that the fluid dripped from their leaves. The number of green peach aphids living on the marked leaves was counted 2, 7, 14, 21 and 28 days after the treatment, and the corrected population density index was calculated according to the equation given below. Corrected population density index =((Number of insects after treatment in treated division)/(Number of insects before treatment in treated division))/((Number of insects after treatment in untreated division)/(Number of insects before treatment in untreated division))x 100 [formula]

[8] = compound of formula (1) alone 50 ppm, leaves sampled 2 days after treatment
[9] = compound of formula (1) alone 50 ppm, leaves sampled 7 days after treatment
[10] = compound of formula (1) alone 50 ppm, leaves sampled 14 days after treatment
[11] = compound of formula (1) alone 50 ppm, leaves sampled 21 days after treatment
[12] = compound of formula (1) alone 50 ppm, leaves sampled 28 days after treatment
[13] = compound of formula (1) alone 50 ppm, leaves sampled 35 days after treatment

Row | Structure (SMILES) | Death rate [1, 8] [%] | Death rate [1, 9] [%] | Death rate [1, 10] [%] | Death rate [1, 11] [%] | Death rate [1, 12] [%] | Death rate [1, 13] [%] | LC₅₀ value [2] [ppm] | LC₅₀ value [4] [ppm] | also measured
1 | CCOc1ccc(C(C)(C)CCCc2cccc(Oc3ccccc3)c2)cc1 [Compound No.3] | 70 | 45 | 15 | 40 | 35 | 5 | 519 |  | 
2 | CC(C)(COCc1cccc(Oc2ccccc2)c1)c1ccc(OC(F)(F)Br)cc1 [Compound No.1] |  |  |  |  |  |  |  | 11.5 | LC₅₀ value [3]: 1.13 ppm; LC₅₀ value [5]: 11.5 ppm; LC₅₀ value [6]: 2000 ppm; Number of living mites (Kanzawa spider mite; 2 days after treatment): 0; Number of living mites (Kanzawa spider mite; 7 days after treatment): 0; Number of living mites (Kanzawa spider mite; 12 days after treatment): 0; Number of living mites (Kanzawa spider mite; 16 days after treatment): 27; Number of living mites (Kanzawa spider mite; 27 days after treatment): 102; LC₅₀ value [7]: 630 ppm; Corrected population density index (green peach aphid; 2 days after treatment): 0; Corrected population density index (green peach aphid; 7 days after treatment): 0.3; Corrected population density index (green peach aphid; 14 days after treatment): 2.5; Corrected population density index (green peach aphid; 21 days after treatment): 42.5; Corrected population density index (green peach aphid; 28 days after treatment): 96.5; Death rate ([1]; compound of formula (1) alone 25 ppm, leaves sampled 2 days after treatment): 90%; Death rate ([1]; compound of formula (1) alone 25 ppm, leaves sampled 7 days after treatment): 10%; Death rate ([1]; compound of formula (1) alone 25 ppm, leaves sampled 14 days after treatment): 0%; Death rate ([1]; compound of formula (1) alone 25 ppm, leaves sampled 21 days after treatment): 0%
3 | CCOc1ccc(C(C)(C)COCc2cccc(Oc3ccccc3)c2)cc1 [Compound No.2] | 38 | 15 | 25 | 11 |  |  | 375 | 162 | 
4 | CCOc1ccc(C(C)(C)CCCc2ccc(F)c(Oc3ccccc3)c2)cc1 [Compound No.4] | 94 | 65 | 60 | 10 | 0 | 0 | 94 |  | 
5 | CCOc1ccc([Si](C)(C)CCCc2ccc(F)c(Oc3ccccc3)c2)cc1 [Compound No.5] | 95 | 73 | 50 | 15 | 0 | 0 | 1150 |  | 
